Inhibition data for 20 compounds are collected here from patent US8580784B2, “Method for treating a disease related to the glucocorticoid receptor” (Santen Pharmaceutical Co., Ltd., priority 2006, dated 2013).

The target of this test is T1, Recombinant human GR (Homo sapiens, UniProt P04150).
T1 construct: purchased Invitrogen P2816
T1 sequence (P04150 1-777): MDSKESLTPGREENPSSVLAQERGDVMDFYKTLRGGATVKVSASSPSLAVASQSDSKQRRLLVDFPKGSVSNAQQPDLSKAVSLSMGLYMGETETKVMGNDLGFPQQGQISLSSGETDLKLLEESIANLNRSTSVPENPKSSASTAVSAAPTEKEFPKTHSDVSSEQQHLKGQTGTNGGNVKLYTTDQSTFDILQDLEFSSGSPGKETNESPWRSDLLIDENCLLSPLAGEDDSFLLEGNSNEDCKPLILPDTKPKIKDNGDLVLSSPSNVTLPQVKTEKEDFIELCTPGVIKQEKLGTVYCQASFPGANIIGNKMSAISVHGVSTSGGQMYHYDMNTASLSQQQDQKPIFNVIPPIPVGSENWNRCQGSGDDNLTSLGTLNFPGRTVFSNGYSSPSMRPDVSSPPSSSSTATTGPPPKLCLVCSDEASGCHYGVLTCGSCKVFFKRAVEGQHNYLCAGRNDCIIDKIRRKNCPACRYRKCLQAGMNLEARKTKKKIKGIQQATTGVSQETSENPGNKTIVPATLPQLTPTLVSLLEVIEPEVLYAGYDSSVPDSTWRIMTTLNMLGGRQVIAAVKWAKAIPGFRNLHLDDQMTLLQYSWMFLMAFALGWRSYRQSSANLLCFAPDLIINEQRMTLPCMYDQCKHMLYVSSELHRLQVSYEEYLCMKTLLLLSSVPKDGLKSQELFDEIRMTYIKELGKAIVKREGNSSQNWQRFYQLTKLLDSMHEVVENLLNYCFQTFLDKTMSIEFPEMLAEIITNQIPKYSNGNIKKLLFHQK
Nature of the test: Evaluation test for binding activity to glucocorticoid receptor: receptor competitor assay by fluorescence polarization (Invitrogen GR competitor assay kit, cat No. P2816). As to conditions: 20 μM test compound solution, 10 μL per well plus 5 μL 4×GS1 and 5 μL 4×GR solution; room temperature 2 to 4 hours; a ratio of 100% or more is indicated by 100%. The protocol:
A detailed explanation of this matter will be described in the section of “Pharmacological Test” in Examples described below. In order to find the usefulness of the present compound as a pharmaceutical, a glucocorticoid receptor competitor assay was carried out by a fluorescence polarization method by using a glucocorticoid receptor competitor assay kit (manufactured by Invitrogen, cat No. P2816) to study the glucocorticoid receptor binding activity of the present compound.
1. Evaluation Test for Binding Activity to Glucocorticoid Receptor (hereinafter referred to as “GR”)
In order to evaluate a binding activity to GR, a receptor competitor assay was carried out by a fluorescence polarization method. In the assay, a GR competitor assay kit (manufactured by Invitrogen, cat No. P2816) was used, and a procedure was carried out according to the protocol attached to the kit. Hereinafter, the specific method will be described.
(Preparation of Reagents)
GR screening buffer: A buffer containing 10 mM potassium phosphate (pH 7.4), 20 mM sodium molybdate (Na2MoO4), 0.1 mM ethylene diamine tetraacetic acid (EDTA), 5 mM dithiothreitol (DTT), 0.1 mM stabilizing peptide and 2% dimethylsulfoxide was prepared.
4×GS1 solution: Fluormone™ GS1, which is a fluorescent glucocorticoid ligand, was diluted with GR screening buffer, whereby a 4 nM solution was prepared.
4×GR solution: Recombinant human GR was diluted with GR screening buffer, whereby a 16 nM solution was prepared.
(Preparation of Test Compound Solution)
After a test compound was dissolved in dimethylsulfoxide, the resulting solution was diluted with GR screening buffer, whereby a 20 μM test compound solution was prepared.
(Test Method and Measurement Method)
1) The test compound solution was added in an amount of 10 μL into each well of a 384-well plate, and then, 4×GS1 solution and 4×GR solution were added in an amount of 5 μL into each well, respectively.
2) The plate was incubated in a dark place at room temperature for 2 to 4 hours.
3) By using a multimode plate reader, Analyst™ HT (manufactured by LJL Biosystems), fluorescence polarization of each well was measured. As the blank, a well containing GR screening buffer in place of the test compound and 4×GS1 solution was used.
4) The same procedure as that in the above 1) to 3) was carried out except that GR screening buffer was used in place of the test compound solution, and the obtained result was taken as the negative control.
5) The same procedure as that in the above 1) to 3) was carried out except that 2 mM dexamethasone was used in place of the test compound solution, and the obtained result was taken as the positive control.
(Calculation Equation of GR Binding Ratio)
A GR binding ratio (%) was calculated from the following equation. GR binding ratio(%)=100×[1−(fluorescence polarization of test compound solution−fluorescence polarization of positive control solution)/(fluorescence polarization of negative control solution−fluorescence polarization of positive control solution)] (Test Results and Discussion)
With `COc1ccccc1NCc1c(-c2ccc(OC(=O)C(C)C)cc2OC)ccc2c1C(C)=CC(C)(C)N2` [Compound 1-14, 6-(4-Isopropylcarbonyloxy-2-methoxyphenyl)-5-(2-methoxyphenylaminomethyl)-2,2,4-trimethyl-1,2-dihydroquinoline], the inhibition at 20 µM (stock) worked out at 99%.

As for `COc1ccccc1NCc1c(-c2ccc(OC(=O)c3cccs3)cc2OC)ccc2c1C(C)=CC(C)(C)N2` [Compound 1-15, 5-(2-Methoxyphenylaminomethyl)-6-[2-methoxy-4-(thiophen-2-ylcarbonyloxy)phenyl]-2,2,4-trimethyl-1,2-dihydroquinoline], the inhibition at 20 µM (stock) was determined as 99%.

As to `COc1cc(OC(=O)c2cccnc2)ccc1-c1ccc2c(c1CNc1cc(F)ccc1C)C(C)=CC(C)(C)N2` [Compound 1-16, 5-(5-Fluoro-2-methylphenylaminomethyl)-6-[2-methoxy-4-(pyridin-3-ylcarbonyloxy)phenyl]-2,2,4-trimethyl-1,2-dihydroquinoline], the inhibition at 20 µM (stock) came to 100%.

Turning to `COc1cc(OC(=O)c2ccco2)ccc1-c1ccc2c(c1CNc1cc(F)ccc1C)C(C)=CC(C)(C)N2` [Compound 1-17, 5-(5-Fluoro-2-methylphenylaminomethyl)-6-[4-(furan-2-ylcarbonyloxy)-2-methoxyphenyl]-2,2,4-trimethyl-1,2-dihydroquinoline], the inhibition at 20 µM (stock) amounted to 99%.

For the compound `COC(=O)c1cccc(C(=O)Oc2ccc(-c3ccc4c(c3CNc3ccccc3OC)C(C)=CC(C)(C)N4)c(OC)c2)c1` [Compound 1-18, 6-[2-Methoxy-4-(3-methoxycarbonylbenzoyloxy)phenyl]-5-(2-methoxyphenylaminomethyl)-2,2,4-trimethyl-1,2-dihydroquinoline], the inhibition at 20 µM (stock) turned out to be 86%.

Turning to `COc1ccc(C(=O)Oc2ccc(-c3ccc4c(c3CNc3ccccc3OC)C(C)=CC(C)(C)N4)c(OC)c2)cc1` [Compound 1-22, 6-[2-Methoxy-4-(4-methoxybenzoyloxy)phenyl]-5-(2-methoxyphenylaminomethyl)-2,2,4-trimethyl-1,2-dihydroquinoline], the inhibition at 20 µM (stock) was found to be 81%.

For the compound `COc1ccccc1NCc1c(-c2ccc(OC(=O)c3ccc(F)cc3)cc2OC)ccc2c1C(C)=CC(C)(C)N2` [Compound 1-23, 6-[4-(4-Fluorobenzoyloxy)-2-methoxyphenyl]-5-(2-methoxyphenylaminomethyl)-2,2,4-trimethyl-1,2-dihydroquinoline], the inhibition at 20 µM (stock) turned out to be 86%.

Regarding `COc1ccccc1NCc1c(-c2ccc(OC(=O)c3ccccc3SC)cc2OC)ccc2c1C(C)=CC(C)(C)N2` [Compound 1-26, 6-[2-Methoxy-4-(2-methylthiobenzoyloxy)phenyl]-5-(2-methoxyphenylaminomethyl)-2,2,4-trimethyl-1,2-dihydroquinoline], the inhibition at 20 µM (stock) came out at 90%.

`COc1ccccc1NCc1c(-c2ccc(OC(=O)c3cccc(C(C)=O)c3)cc2OC)ccc2c1C(C)=CC(C)(C)N2` [Compound 1-27, 6-[4-(3-Acetylbenzoyloxy)-2-methoxyphenyl]-5-(2-methoxyphenylaminomethyl)-2,2,4-trimethyl-1,2-dihydroquinoline]: the inhibition at 20 µM (stock) was found to be 87%.

As to `COc1ccccc1NCc1c(-c2ccc(OC(=O)c3sccc3Cl)cc2OC)ccc2c1C(C)=CC(C)(C)N2` [Compound 1-28, 6-[4-(3-Chlorothiophen-2-ylcarbonyloxy)-2-methoxyphenyl]-5-(2-methoxyphenylaminomethyl)-2,2,4-trimethyl-1,2-dihydroquinoline], the inhibition at 20 µM (stock) is 88%.

As to `COc1ccccc1NCc1c(-c2ccc(OC(=O)c3occc3C)cc2OC)ccc2c1C(C)=CC(C)(C)N2` [Compound 1-29, 6-[2-Methoxy-4-(3-methylfuran-2-ylcarbonyloxy)phenyl]-5-(2-methoxyphenylaminomethyl)-2,2,4-trimethyl-1,2-dihydroquinoline], the inhibition at 20 µM (stock) stood at 93%.

Turning to `COc1ccccc1NCc1c(-c2ccc(OC(=O)c3cscn3)cc2OC)ccc2c1C(C)=CC(C)(C)N2` [Compound 1-30, 5-(2-Methoxyphenylaminomethyl)-6-[2-methoxy-4-(thiazol-4-ylcarbonyloxy)phenyl]-2,2,4-trimethyl-1,2-dihydroquinoline], the inhibition at 20 µM (stock) stood at 94%.

Turning to `COc1ccccc1NCc1c(-c2ccc(OC(=O)c3ccc(C)nc3)cc2OC)ccc2c1C(C)=CC(C)(C)N2` [Compound 1-31, 6-[2-Methoxy-4-(6-methylpyridin-3-ylcarbonyloxy)phenyl]-5-(2-methoxyphenylaminomethyl)-2,2,4-trimethyl-1,2-dihydroquinoline], the inhibition at 20 µM (stock) stood at 92%.

In the case of `COc1ccccc1NCc1c(-c2ccc(OC(=O)c3cccnc3OC)cc2OC)ccc2c1C(C)=CC(C)(C)N2` [Compound 1-32, 6-[2-Methoxy-4-(2-methoxypyridin-3-ylcarbonyloxy)phenyl]-5-(2-methoxyphenylaminomethyl)-2,2,4-trimethyl-1,2-dihydroquinoline], the inhibition at 20 µM (stock) was found to be 90%.

Regarding `COc1cc(OC(=O)c2ccoc2)ccc1-c1ccc2c(c1CNc1cc(F)ccc1C)C(C)=CC(C)(C)N2` [Compound 1-33, 5-(5-Fluoro-2-methylphenylaminomethyl)-6-[4-(furan-3-ylcarbonyloxy)-2-methoxyphenyl]-2,2,4-trimethyl-1,2-dihydroquinoline], the inhibition at 20 µM (stock) amounted to 100%.

On to `COc1cc(OC(=O)c2ccncc2)ccc1-c1ccc2c(c1CNc1cc(F)ccc1C)C(C)=CC(C)(C)N2` [Compound 1-34, 5-(5-Fluoro-2-methylphenylaminomethyl)-6-[2-methoxy-4-(pyridin-4-ylcarbonyloxy)phenyl]-2,2,4-trimethyl-1,2-dihydroquinoline], for which the inhibition at 20 µM (stock) is 100%.

On to `COc1cc(OC(=O)c2ccccc2F)ccc1-c1ccc2c(c1CNc1cc(F)ccc1C)C(C)=CC(C)(C)N2` [Compound 1-35, 6-[4-(2-Fluorobenzoyloxy)-2-methoxyphenyl]-5-(5-fluoro-2-methylphenylaminomethyl)-2,2,4-trimethyl-1,2-dihydroquinoline], for which the inhibition at 20 µM (stock) came to 100%.

For the compound `COc1cc(OC(=O)c2cccnc2C)ccc1-c1ccc2c(c1CNc1cc(F)ccc1C)C(C)=CC(C)(C)N2` [Compound 1-38, 5-(5-Fluoro-2-methylphenylaminomethyl)-6-[2-methoxy-4-(2-methylpyridin-3-ylcarbonyloxy)phenyl]-2,2,4-trimethyl-1,2-dihydroquinoline], the inhibition at 20 µM (stock) came to 100%.

`COc1cc(OC(=O)c2ccccc2SC)ccc1-c1ccc2c(c1CNc1cc(F)ccc1C)C(C)=CC(C)(C)N2` [Compound 1-39, 5-(5-Fluoro-2-methylphenylaminomethyl)-6-[4-(2-methylthiobenzoyloxy)-2-methoxyphenyl]-2,2,4-trimethyl-1,2-dihydroquinoline]: the inhibition at 20 µM (stock) amounted to 100%.

Take `COc1cc(OC(=O)c2cccnc2OC)ccc1-c1ccc2c(c1CNc1cc(F)ccc1C)C(C)=CC(C)(C)N2` [Compound 1-41, 5-(5-Fluoro-2-methylphenylaminomethyl)-6-[2-methoxy-4-(2-methoxypyridin-3-ylcarbonyloxy)phenyl]-2,2,4-trimethyl-1,2-dihydroquinoline]: the inhibition at 20 µM (stock) was determined as 100%.
